Key:
Assay in all cases: relative viability (nuclei count vs DMSO), 5 days (fraction); higher = more cells survive
[1] = compound: CN(c1ncccc1CNc1nc(Nc2ccc3c(c2)CC(=O)N3)ncc1C(F)(F)F)S(C)(=O)=O + CS(=O)(=O)N1CCN(Cc2cc3nc(-c4cccc5[nH]ncc45)nc(N4CCOCC4)c3s2)CC1 [Pictilisib] (partner 1 µM)
Summary of the method: (§1)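 Lung cancer cell lines in 1536-well plates were dosed by pin tool the day after seeding, either with one drug alone or with a fixed anchor-drug dose plus five library-drug doses (not always all listed) in √10 steps. After 5 days, cells were fixed and their nuclei stained in one step (final 0.05% Triton X-100, 1% formaldehyde, 1 ug/ml Hoechst), then counted on 4× images. Relative viability is the nuclei count in treated wells divided by that in vehicle wells. Values are medians of duplicate plates.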

[2] = compound: CN(c1ncccc1CNc1nc(Nc2ccc3c(c2)CC(=O)N3)ncc1C(F)(F)F)S(C)(=O)=O + C[C@]1(O)C[C@@H](c2nc(-c3ccc4ccc(-c5ccccc5)nc4c3)c3c(N)nccn32)C1 [Linsitinib] (partner 1 µM)
Summary of the method: as §1

[3] = compound: CN(c1ncccc1CNc1nc(Nc2ccc3c(c2)CC(=O)N3)ncc1C(F)(F)F)S(C)(=O)=O + Cc1nc(NC(=O)N2CCC[C@H]2C(N)=O)sc1-c1ccnc(C(C)(C)C(F)(F)F)c1 [Alpelisib] (partner 2 µM)
Summary of the method: as §1

[4] = compound: CN(c1ncccc1CNc1nc(Nc2ccc3c(c2)CC(=O)N3)ncc1C(F)(F)F)S(C)(=O)=O + Nc1ncn([C@H]2C[C@H](O)[C@@H](CO)O2)c(=O)n1 [Decitabine] (partner 2 µM)
Summary of the method: as §1

Cell Line	relative viability ([1]; first compound 0.01 µM)	relative viability ([1]; first compound 0.03162 µM)	relative viability ([1]; first compound 0.1 µM)	relative viability ([1]; first compound 0.3162 µM)	relative viability ([1]; first compound 1 µM)	relative viability ([2]; first compound 0.01 µM)	relative viability ([2]; first compound 0.03162 µM)	relative viability ([2]; first compound 0.1 µM)	relative viability ([2]; first compound 0.3162 µM)	relative viability ([2]; first compound 1 µM)	relative viability ([3]; first compound 0.01 µM)	relative viability ([3]; first compound 0.03162 µM)	relative viability ([3]; first compound 0.1 µM)	relative viability ([3]; first compound 0.3162 µM)	relative viability ([3]; first compound 1 µM)	relative viability ([4]; first compound 0.01 µM)	relative viability ([4]; first compound 0.03162 µM)	relative viability ([4]; first compound 0.1 µM)	relative viability ([4]; first compound 0.3162 µM)	relative viability ([4]; first compound 1 µM)
NCI-H1944	0.356	0.352	0.335	0.342	0.396	1.22	1.18	1.16	1.13	1.28	0.742	0.955	0.805	0.86	0.918	0.448	0.474	0.467	0.432	0.445
HARA	0.305	0.556	0.365	0.544	0.377	0.945	1.06	1.03	0.978	0.856	0.733	0.79	0.744	0.695	0.625	0.66	0.599	0.492	0.597	0.573
NCI-H2126	0.495	0.469	0.452	0.533	0.459	0.698	0.776	0.714	0.721	0.7	0.717	0.739	0.742	0.743	0.641	0.623	0.615	0.564	0.557	0.53
LXF-289	0.834	0.937	0.75	0.677	0.737	1.03	1.03	0.95	0.947	0.936	1.05	1.07	1.07	0.988	0.947	0.374	0.427	0.419	0.412	0.447
NCI-H460	0.338	0.425	0.437	0.367	0.418	0.79	1.17	0.785	0.628	0.788	0.519	0.577	0.487	0.443	0.508	0.477	0.702	0.537	0.493	0.549
NCI-H1395	0.569	0.655	0.605	0.668	0.661	0.939	1.12	0.981	1.1	1.2	0.996	1.08	0.997	1.06	1.06	0.711	0.767	0.678	0.771	0.785
NCI-H2009	0.793	0.91	0.745	0.95	0.958	1.14	1.18	1.18	1.24	1.09	1.12	1.21	1.17	1.17	1.1	0.425	0.362	0.372	0.4	0.448

Reference: the supplement of paper PMC10307832
